{"source": "paper PMC9104802", "about": "(Cells, 2022)", "key": {"[1]": {"biological_target": "T1, hTERT (telomerase reverse transcriptase) (Homo sapiens, UniProt O14746)", "T1 construct": "gene TERT", "T1 sequence (O14746 325-550 limits assumed)": "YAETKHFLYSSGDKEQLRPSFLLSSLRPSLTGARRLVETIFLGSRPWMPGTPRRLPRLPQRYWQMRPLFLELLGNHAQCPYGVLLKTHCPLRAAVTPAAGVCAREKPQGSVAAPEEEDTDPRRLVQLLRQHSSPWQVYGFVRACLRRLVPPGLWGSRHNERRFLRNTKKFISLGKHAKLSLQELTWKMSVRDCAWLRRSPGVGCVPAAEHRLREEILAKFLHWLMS", "assay": "fluorescence polarization with His-hTRBD, BSA negative control; supported by TRAP inhibition of reconstituted GST-opTERT/hTERC and immunoprecipitated FLAG-hTERT telomerase (IC50 […])", "type": "binding"}, "[2]": {"tested_on": "Telo24 (human telomeric oligonucleotide, telomeric G-quadruplex) (DNA, G4) TTAGGGTTAGGGTTAGGGTTAGGG", "assay": "microscale thermophoresis (MST)", "conditions": "K+ 100 mM KCl (plus potassium phosphate); 10 mM K2HPO4/KH2PO4 pH 7.0; 30 min; 1 μM DNA; SC 0.15625-320 μM; apparent"}}, "data": [{"smiles": "C[n+]1cc2c3c(ccc2c2ccc4cc5c(cc4c21)OCO5)OCO3", "note": "[SC, Sanguinarine chloride]", "values": [{"measurement": "EC50", "setting": "[1]", "result": 24.8, "unit": "µM"}, {"measurement": "EC50", "setting": "[2]", "result": 120, "unit": "µM"}]}]}
